Assay results taken from paper PMC7305224, “Mutually stabilizing interactions between proto-peptides and RNA” (Nature Communications, 2020).

Tested on: RNA duplex 1 (5′-rCrGrCrUrArArArUrCrG-3′ & 5′-rCrGrArUrUrUrArGrCrG-3′)
Test: RNA thermal denaturation (Tm) by UV hyperchromicity at 260 nm with synthetic peptides/depsipeptides, RNA duplex 1
Type: binding
Settings: 100 mM NaCl
Protocol: Each sample contained RNA duplex 1 (5′-rCrGrCrUrArArArUrCrG-3′ and 5′-rCrGrArUrUrUrArGrCrG-3′, 2.5 μM strand) and peptide/depsipeptide (100 μM) in buffered solution (10 mM phosphate, 100 mM NaCl, pH 7.0 or 10 mM acetate, 100 mM NaCl, pH 5.0). a Structures of depsipeptides used to systematically characterize cationic side chain effects on RNA duplex stability. Lactic acid residues are highlighted. Ac acetyl, Aba acetamidobenzoic acid, which was appended to the N-terminus to increase UV absorbance. b Structures of the Fmoc-didepsipeptide building blocks used for solid-phase synthesis of depsipeptide sequences. Fmoc fluorenylmethoxycarbonyl. c Comparative effects of oligo-didepsipeptide sequences 2–6 and analogous oligo-dipeptide and on the Tm of the RNA duplex (number of independent measurements: n = 3 for Arg and Lys sequences; n = 2 for His and Dab sequences; n = 4 for Orn sequences). The shaded areas correspond to the mean ± SD Tm measured for the RNA duplex alone (n = 16 independent measurements). Data are shown as a scatter plot with mean ± SD. d Comparative effects on RNA duplex Tm of depsipeptide sequences containing a single backbone ester (number of independent measurements: n = 3 for Arg; n = 2 for His, Orn, and Dab; n = 4 for Lys), relative to RNA duplex alone (n = 16 independent measurements). Data are shown as a scatter plot with mean ± SD. e To assess the impact of different cationic side chains on depsipeptide degradation rates, depsipeptides 7–11 (40 μM) were incubated at 37 °C in buffer (100 mM HEPES, 10 mM NaCl, pH 7.3). After 5 min, the reactions were quenched by the addition of 3% TFA, and samples were analyzed by HPLC.
Prior to Tm analyses, RNA samples were annealed in the appropriate buffer by heating to 75 °C and slowly cooling to room temperature. Depsipeptide/peptide was added to the annealed RNA and incubated at 4 °C for 20 min prior to carrying out the analysis. For analyses involving dry-down reaction mixtures, the Tm was determined by monitoring fluorescence increase upon melting of a fluorophore/quencher-labeled RNA duplex (5′-rCrGrArUrUrUrArGrCrG-/3IABkFQ/-3′ and 3′-rGrCrUrArArArUrCrGrC-FAM-5′) using a BioRad CFX Connect rtPCR instrument with a heating ramp of 1 °C/min and 20 μL final sample volumes. For analyses involving pure, synthetic compounds, the Tm of the RNA was determined by monitoring UV hyperchromicity at 260 nm using a Varian Cary Bio-100 spectrophotometer, with a heating ramp of 1 °C/min and 0.5- or 1-cm pathlength cells. The following RNA sequences were used: RNA duplex 1 = 5′-rCrGrCrUrArArArUrCrG-3′ and 5′-rCrGrArUrUrUrArGrCrG-3′; RNA duplex 2 = 5′-rArArArArUrUrUrArUrArUrUrArUrUrA-3′ and 5′-rUrArArUrArArUrArUrArArArUrUrUrU-3′; RNA duplex 3 = 5′-rArArCrGrUrArUrArCrGrUrU-3′ (palindromic); and H26a RNA = 5′-rArUrGrArGrUrArArCrCrGrUrArArGrGrUrGrArArArUrU-3′. RNA was present in each assay at a final concentration of 2.5 μM of the folded structure (2.5 μM each strand for duplex 1 and duplex 2, 5.0 μM palindromic strand for duplex 3, 2.5 μM strand for H26a RNA). Tm values were determined by nonlinear fitting of the melting curves using GraphPad Prism 8.2.1 for duplex 1 and H26a, or by finding the maximum of the first derivative of the curve using the Varian Cary Bio-100 software for duplex 2 and duplex 3.

Aba-Gly-Ala-Dab-Lys-Ala-Dab-Lys-lac-Dab-Lys-Ala-Dab-Lys-NH2 [compound 9]
RNA duplex 1 Tm (observed Tm with peptide/depsipeptide 100 µM, pH 7.0, 10 mM phosphate, RNA alone 43.8 ± 0.4, mean ± SD of 2-4 independent experiments): 54.2 ± 1.3 °C
RNA duplex 1 ΔTm (peptide/depsipeptide 100 μM, RNA 2.5 μM each strand, 10 mM phosphate, pH 7.0, vs RNA alone at matched pH, mean of 2–4 replicates): 10.4 °C
